# According to the METLIN SMRT retention time set (Domingo-Almenara et al. 2019):
# Test: gradient 5% acetonitrile 3 min, to 50% in 2 min, to 85% in 15 min, held 3 min, 100 µL/min
# Conditions: column: Zorbax Extend-C18 2.1 x 50 mm; eluents: water / acetonitrile, 0.1% formic acid
# How it was run: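 In both positive and negative ionization mode, a quadrupole time-of-flight mass spectrometer coupled to HPLC analyzed pure standards run in mixtures of ~100 molecules. The Zorbax Extend-C18 column (2.1 × 50 mm, 1.8 μm) was operated at 100 μL/min with water and acetonitrile, each containing 0.1% formic acid. The dead volume was 40 μL and the dwell volume 900 μL. Retention time came from adduct peaks that were computationally picked and individually inspected by hand.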
row,Compound,RP-LC retention time [s]
1,COc1cccc2c(C)nc(NC3=NCN(CC4CCCO4)CN3)nc12 (stereo unspecified),627
2,CC1(C(=O)NCc2ccccc2)CN(S(C)(=O)=O)CC(=O)N1Cc1ccccc1F (stereo unspecified),818
3,Cc1cccc(CNC(=O)Cn2c(=O)c3nnc(C)n3c3ncccc32)c1,685
4,Cc1noc(-c2cc(=O)n(CC(=O)NCc3ccccc3F)c3ccccc23)n1,826
5,Cc1cc2c(cc1S(=O)(=O)N1CCC(C(=O)N3CCCCC3)CC1)OCC(=O)N2,734
6,CC1Cc2ccccc2N1C(=O)c1ccc(=O)n(CCC(=O)N2CCN(C3CCCCC3)CC2)n1 (stereo unspecified),654
7,COCCNC(=O)c1nc(-c2ccnc(N3CCC(C)CC3)c2)no1,670
8,Cc1ccc(S(=O)(=O)NC(=O)Nc2nccs2)cc1,751
9,CCC(=O)N(C)c1nc2ccccc2n(CC(=O)Nc2c(C)cc(C)cc2C)c1=O,822
10,CC1(C)CC(=O)C2=C(C1)N=C1SCCC(=O)N1C2c1ccc(Cl)cc1 (stereo unspecified),877
11,COc1cc(NS(=O)(=O)c2ccc(-c3c(C)noc3C)cc2)cc(OC)c1,889
12,CCOC(=O)c1[nH]c(C)c(CCC(=O)N2CCC(C(=O)NCc3cccs3)CC2)c1C,755
13,O=C1CCc2cc(S(=O)(=O)NCCc3ccc(Cl)cc3)cc3c2N1CCC3,903
14,O=C(Nc1nc(-c2ccc(F)cc2)cs1)c1cccc(Br)c1,1120
15,COc1ccc2c(c1)C1(CCN(C(=O)Nc3ccc(OC)c(OC)c3)C1)C(=O)N2 (stereo unspecified),671
16,Cc1ccc(-c2ccc3nn(Cc4nc(-c5ccc(Br)cc5)no4)c(=O)n3n2)cc1,1100
17,CCn1c(=O)n(CC)c2cc(NC3=C(C(N)=O)S(=O)(=O)c4ccccc43)ccc21,702
18,CN(C)CCNCc1ccc(-c2cc(Cl)ccc2Cl)o1,578
19,Cc1nnc(C2CC3(CCN(CCc4ccccc4)CC3)CN2Cc2ccccc2)o1 (stereo unspecified),656
20,COc1cc(NC(=O)CN2C(=O)C(C)(C)c3ccccc32)cc(OC)c1,876
21,Cc1sc(C)c(S(=O)(=O)N2CCCCCC2)c1-c1cc(C(F)(F)F)on1,1200
22,O=C(NC1CCCCCC1)C1CCN(c2nccnc2Oc2ccccc2)CC1,1020
23,CSc1cccc(NC(=O)C2CCN(c3cnc4nccnc4c3)CC2)c1,752

row,Compound,RP-LC retention time [s]
1,Cc1ccc(Cn2c(N3CCCC(C(=O)NCC4CC4)C3)nc3ccsc3c2=O)cc1 (stereo unspecified),894
2,CCOC(=O)c1c(S(=O)(=O)N2CCC(C(=O)Nc3ccc4c(c3)OCO4)CC2)c(C)n(C)c1C,807
3,Cc1ccccc1NC(=O)c1cnc2c(c1)c(=O)n(C)c(=O)n2-c1ccccc1,700
4,O=C(NCCCOc1cccc2cccnc12)c1cc(-c2ccccc2)on1,617
5,COCCCNc1nccc(-n2nc(C)cc2C)n1,631
6,Cc1ccc(-c2nc(-c3ccc4c(c3)oc(=O)n4C(C)C)no2)cc1C,1130
7,CCN1CCN(C(=O)C2CCN(S(=O)(=O)c3c(C)nn(-c4ccccc4)c3C)CC2)CC1,621
8,Cc1ncoc1C(=O)N1CCC(c2noc(-c3ccccc3)n2)C1 (stereo unspecified),763
9,O=C(N[C@H]1C[C@@H]2C[C@H]1CN2C(=O)NCCc1ccccc1)c1ccccc1,734
10,Cc1cc(S(=O)(=O)N2CCC(C(N)=O)CC2)ccc1F,649
11,CCN(C(=O)CC(=O)OC)c1nc(-c2ccc(C)cc2)cs1,1070
12,COCC(C)(O)CNC(=O)COc1ccccc1OC (stereo unspecified),608
13,O=C(Cn1cccc1-c1nc(-c2ccc3c(c2)OCO3)no1)Nc1cc(F)ccc1Cl,1110
14,O=C(NC1CCCC1)c1nc(Cn2c(=O)oc3ccc(Cl)cc32)no1,931
15,Cc1cc2[nH]c(C(=O)Nc3ccc(Cl)cc3C)c(CN3CCOCC3)c2s1,738
16,COCCn1cc(C(=O)Nc2ccccc2)c2nn(-c3ccccc3)c(=O)c-2c1,937
17,COc1cc(CCC(=O)O)on1,658
18,CC(C)(C)c1cc(Br)ccc1OCC(=O)Nc1ncn[nH]1,797
19,N#Cc1ccc(NC2c3ccccc3CC2O)cc1 (stereo unspecified),822
20,O=C(NCc1ccc(F)cc1F)C1=C2CCCN2c2ccc(F)cc2S1(=O)=O,895
21,O=C(CCc1ccccc1)N1CCC(n2nnc3cc(F)ccc3c2=O)CC1,879
22,O=C(Nc1ccnn1Cc1ccccc1)c1cc(=O)c2cc(Cl)ccc2o1,867
23,CC(C)CNC(=O)NCC1Cn2cccc2C(=O)N1Cc1ccccc1 (stereo unspecified),744

row,Compound,RP-LC retention time [s]
1,CCCc1nc2c(c(=O)n1CC(=O)NCc1cccs1)CCN(Cc1ccccc1)C2,641
2,O=C(Nc1cccc(-c2nccnc2N2CCOCC2)c1)Nc1ccc(F)c(Cl)c1,868
3,CCS(=O)(=O)N1CCC2(CC1)CN(Cc1ccc(OC)cc1)C2=O,745
4,c1ccc(COCCc2noc(C3CCCN3)n2)cc1 (stereo unspecified),614
5,CNC(=O)CCc1nc2ccccc2n(CC(=O)NCc2ccc(F)cc2)c1=O,666
6,COC(=O)CSCC(=O)Nc1nccs1,610
7,O=C(NCC1CC1)c1ccc(NC(=O)C2CCC2)cc1N1CCOCC1,709
8,Cc1cccc(-c2nc3ccccn3c2NC(=O)NCc2cccc(F)c2)c1,669
9,Cc1nn(C(=O)c2cccnc2)c(C)c1Sc1ccccc1[N+](=O)[O-],916
10,Cc1noc(C2(NC(=O)C3COc4ccccc4O3)CCCCC2)n1 (stereo unspecified),920
11,CC(C)C(=O)Nc1nnc2n1CCS2,519
12,O=C(Cn1nc2n(c1=O)CCCC2)Nc1ccc(F)c(Cl)c1,670
13,Cc1cc(C)n(CC(=O)N(C)C2CCc3nn(CC4CC4)c(=O)n3CC2)n1 (stereo unspecified),630
14,CCc1noc([C@@H]2CC(F)(F)CN2C(=O)Cn2cc(C)cn2)n1,718
15,Cc1cccc(-c2ncccc2CNS(=O)(=O)c2ccccc2F)c1,702
16,Cc1cc(N2CCN(C(=O)Nc3ccc4c(c3)OCO4)CC2)nc(N2CCCCC2)n1,660
17,O=C(CN1C(=O)C(C(=O)N2CCCC2)Sc2ccccc21)N1CCN(c2cccc(Cl)c2)CC1 (stereo unspecified),923
18,O=C(c1cc(=O)[nH]c2ccccc12)N1CCCC1,598
19,COCCn1cc(CCNC(=O)Nc2c(F)cccc2F)c2cccnc21,660
20,O=C(Nc1ccccc1Cl)c1csc(-c2ccc(N3CCCC3)nc2)n1,878
21,Cc1cc(C)cc(NS(=O)(=O)c2cc(-c3cc(C(F)(F)F)on3)sc2C)c1,1230
22,Fc1ccc(C2Cn3nnc(-c4nc(-c5ccc(OC(F)(F)F)cc5)no4)c3CO2)cc1 (stereo unspecified),1250
23,O=C(Nc1cnc(N2CCOCC2)nc1)c1cccc(Cl)c1,793

row,Compound,RP-LC retention time [s]
1,Cc1ccc(-c2nc(-c3ccc4c(c3)nnn4CCN3CCOCC3)no2)cc1C,760
2,COc1ccc(NC(=O)N2CCC(n3cnnc3C3CC3)C2)c(OC)c1 (stereo unspecified),610
3,CC1CCN(C(=O)CN2C(=O)C3CCCCN3c3ccc(C(=O)N(C)C)cc32)CC1 (stereo unspecified),752
4,CC(=O)N1CCCSc2ccc(S(=O)(=O)N3CCN(c4cc(C)ccc4C)CC3)cc21,1130
5,Cc1ccc(-c2cn3c(n2)N(C(=O)c2cnccn2)CCC3)cc1,642
6,Cc1cc(C)cc(-n2ccn(Cc3nc(-c4ccc(C(C)(C)C)cc4)no3)c(=O)c2=O)c1,1130
7,CC1=C(c2ccccc2)S(=O)(=O)N=C1N1CCCN(C(=O)c2ccc(F)cc2F)CC1,835
8,CCOC(=O)C1CCN(C(=O)c2ccc(-c3csc(C4CC4)n3)cc2)CC1,961
9,CCCC(NC(=O)CCc1ccc(OC)cc1)C(=O)Nc1nc2ccccc2[nH]1 (stereo unspecified),713
10,COc1cc(C2NCCc3c2[nH]c2ccccc32)ccc1OC(C)C (stereo unspecified),676
11,CN(CCNC(=O)c1cc(=O)n(C)c2c1c(=O)n(C)c(=O)n2C)C1CCCCC1,624
12,Cc1ccc(-c2nc(Cn3cccc3C(=O)N3CCCC3)no2)cc1,972
13,CCn1cc(-c2ccccc2)cc1C(=O)NC(C)c1ccccn1 (stereo unspecified),749
14,O=C(NCCCN1CCOCC1)C1=C2CCCN2c2ccc(F)cc2S1(=O)=O,576
15,CCCn1c(=O)sc2cc(S(=O)(=O)N3CCC(C(=O)Nc4ccc(C)c(C)c4)CC3)ccc21,1030
16,CCc1nc2cc(-c3noc(-c4ccc(C)cc4)n3)ccc2o1,1270
17,Cc1cccn2c(=O)cc(OCC(=O)Nc3ccc(SC(F)F)cc3)nc12,771
18,Cc1sc(-n2cccc2)nc1C(=O)N1CCN(c2ccccn2)CC1,623
19,Fc1ccc(OCc2nnc3sc(-c4cccc(F)c4)nn23)cc1,947
20,CCn1c(CC2C(=O)Nc3ccc(Br)cc32)nc2ccccc2c1=O (stereo unspecified),825
21,COC(=O)c1cnc2nc(C)ccc2c1Nc1ccc(Cl)c(F)c1,713
22,O=S(=O)(c1cccc(Br)c1)N1CCc2nc(-c3ccccc3)ncc2C1,1130
